The conditions of data set [1]: 298.15 K; 101 kPa; Liquid.
The nature of data set [2]: xn = mol fraction of the nth substance listed. The conditions noted are these: 298.15 K, 101 kPa, Liquid.

± gives the expanded uncertainty stated by the source.

On to `C1COCO1` [1,3-dioxolane], for which, in data set [1], the mass density is recorded as 1057.1 ± 0.9 kg/m3 and the viscosity came to 0.531 ± 0.01 mPa·s.
For the compound `C1COCCO1` [1,4-dioxane], in data set [1], the mass density is reported as 1026.5 ± 0.8 kg/m3 and the viscosity was 1.196 ± 0.02 mPa·s.
As for `CCCCN` [1-butanamine], in data set [1], the mass density was found to be 731.9 ± 0.6 kg/m3 and the viscosity is on record as 0.493 ± 0.009 mPa·s.
For `CCCC(=O)O` [butanoic acid], in that order: 952.8 ± 0.8 kg/m3 and 1.396 ± 0.023 mPa·s.
In the case of `CCCC(=O)O` [butanoic acid] + C1COCO1, the mass density in data set [2] (x2 = 0) was 952.8 ± 0.8 kg/m3; in data set [2] (x2 = 0.1167), 963.1 ± 0.8 kg/m3; in data set [2] (x2 = 0.2292), 973.7 ± 0.8 kg/m3; in data set [2] (x2 = 0.3376) it was 984.3 ± 0.8 kg/m3; in data set [2] (x2 = 0.4422), 995.3 ± 0.8 kg/m3; in data set [2] (x2 = 0.5432), 1006.1 ± 0.8 kg/m3. The mass density in data set [2] (x2 = 0.6408) worked out at 1016.9 ± 0.8 kg/m3; in data set [2] (x2 = 0.7351), 1027.2 ± 0.8 kg/m3; in data set [2] (x2 = 0.8263) it was 1037.4 ± 0.8 kg/m3; in data set [2] (x2 = 0.9146), 1047.3 ± 0.9 kg/m3. Besides, the viscosity in data set [2] (x2 = 0) was determined as 1.396 ± 0.023 mPa·s; in data set [2] (x2 = 0.1167), 1.297 ± 0.021 mPa·s; in data set [2] (x2 = 0.2292), 1.202 ± 0.02 mPa·s; in data set [2] (x2 = 0.3376), 1.111 ± 0.019 mPa·s; in data set [2] (x2 = 0.4422) it was 1.023 ± 0.017 mPa·s; in data set [2] (x2 = 0.5432), 0.938 ± 0.016 mPa·s. In addition, the viscosity in data set [2] (x2 = 0.6408) turned out to be 0.854 ± 0.015 mPa·s; in data set [2] (x2 = 0.7351) it was 0.77 ± 0.013 mPa·s; in data set [2] (x2 = 0.8263), 0.688 ± 0.012 mPa·s; in data set [2] (x2 = 0.9146) it was 0.608 ± 0.011 mPa·s.
With `CCC(C)=O` [butanone], in data set [1], the mass density turned out to be 798.1 ± 0.6 kg/m3 and the viscosity turned out to be 0.373 ± 0.007 mPa·s.
For `CCC(C)=O` [butanone] + C1COCCO1, the mass density in data set [2] (x2 = 0) is 798.1 ± 0.6 kg/m3; in data set [2] (x2 = 0.0833), 817 ± 0.6 kg/m3; in data set [2] (x2 = 0.1698), 836.5 ± 0.7 kg/m3; in data set [2] (x2 = 0.2597), 856.8 ± 0.7 kg/m3; in data set [2] (x2 = 0.353), 877.9 ± 0.7 kg/m3; in data set [2] (x2 = 0.4501) it was 900.1 ± 0.7 kg/m3. For the same compound, the mass density is listed as 923.3 ± 0.7 kg/m3 in data set [2] (x2 = 0.5511), 947.2 ± 0.8 kg/m3 in data set [2] (x2 = 0.6563), 972.2 ± 0.8 kg/m3 in data set [2] (x2 = 0.766) and 998.5 ± 0.8 kg/m3 in data set [2] (x2 = 0.8805). For the same compound, the viscosity in data set [2] (x2 = 0) is on record as 0.373 ± 0.007 mPa·s; in data set [2] (x2 = 0.0833) it was 0.391 ± 0.008 mPa·s; in data set [2] (x2 = 0.1698), 0.411 ± 0.008 mPa·s; in data set [2] (x2 = 0.2597) it was 0.436 ± 0.008 mPa·s; in data set [2] (x2 = 0.353) it was 0.464 ± 0.009 mPa·s; in data set [2] (x2 = 0.4501), 0.512 ± 0.01 mPa·s. Further, the viscosity is 0.576 ± 0.011 mPa·s in data set [2] (x2 = 0.5511), 0.65 ± 0.012 mPa·s in data set [2] (x2 = 0.6563), 0.751 ± 0.013 mPa·s in data set [2] (x2 = 0.766) and 0.901 ± 0.015 mPa·s in data set [2] (x2 = 0.8805).
For `CCC(C)=O` [butanone] + C1COCO1, in data set [2] (x2 = 0), the mass density turned out to be 798.1 ± 0.6 kg/m3 and the viscosity was found to be 0.373 ± 0.007 mPa·s.
With `CCCCOC(C)=O` [butyl ethanoate], in data set [1], the mass density was determined as 874.4 ± 0.7 kg/m3 and the viscosity came to 0.668 ± 0.012 mPa·s.
Take `CCCCOC(C)=O` [butyl ethanoate] + C1COCCO1: the mass density in data set [2] (x2 = 0) was found to be 874.4 ± 0.7 kg/m3; in data set [2] (x2 = 0.1278), 887.5 ± 0.7 kg/m3; in data set [2] (x2 = 0.2479) it was 901 ± 0.7 kg/m3; in data set [2] (x2 = 0.361), 914.9 ± 0.7 kg/m3; in data set [2] (x2 = 0.4678), 929.2 ± 0.7 kg/m3; in data set [2] (x2 = 0.5687) it was 944.1 ± 0.8 kg/m3. The mass density in data set [2] (x2 = 0.6641) amounted to 959.4 ± 0.8 kg/m3; in data set [2] (x2 = 0.7547), 975.3 ± 0.8 kg/m3; in data set [2] (x2 = 0.8406), 991.8 ± 0.8 kg/m3; in data set [2] (x2 = 0.9223), 1008.9 ± 0.8 kg/m3. Besides, the viscosity in data set [2] (x2 = 0) is listed as 0.668 ± 0.012 mPa·s; in data set [2] (x2 = 0.1278) it was 0.682 ± 0.012 mPa·s; in data set [2] (x2 = 0.2479), 0.692 ± 0.012 mPa·s; in data set [2] (x2 = 0.361), 0.708 ± 0.013 mPa·s; in data set [2] (x2 = 0.4678) it was 0.739 ± 0.013 mPa·s; in data set [2] (x2 = 0.5687) it was 0.779 ± 0.014 mPa·s. The viscosity in data set [2] (x2 = 0.6641) is reported as 0.822 ± 0.014 mPa·s; in data set [2] (x2 = 0.7547), 0.866 ± 0.015 mPa·s; in data set [2] (x2 = 0.8406) it was 0.939 ± 0.016 mPa·s; in data set [2] (x2 = 0.9223), 1.035 ± 0.017 mPa·s.
Take `CCCCOC(C)=O` [butyl ethanoate] + C1COCO1: in data set [2] (x2 = 0), the mass density was 874.4 ± 0.7 kg/m3 and the viscosity came out at 0.668 ± 0.012 mPa·s.

As usually defined, the mass density is mass per unit of volume. The viscosity is the resistance of a fluid to flow.
